Data taken from patent US6737383B1, “Herbicidal oxadiazolidines” (priority 1999, dated 2004).

What was measured:
smallflower flatsedge = assay: Test B flood test smallflower flatsedge; format: in vivo, Cyperus difformis
Outline: (§1)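 Each value is a visual injury score relative to controls, with 10 meaning complete control and 0 no effect. Evaluation took place twelve to sixteen days after the 2-leaf-stage plants were treated and kept in the greenhouse.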

bamyardgrass = assay: Test B flood test barnyardgrass; format: in vivo, Echinochloa crus-galli
Protocol: At the same time, these crop and weed species were also treated with postemergence applications of test chemicals formulated in the same manner. Plants ranged in height from 2 to 18 cm (1- to 4-leaf stage) for postemergence treatments. Plant species in the flood test consisted of rice (Oryza sativa), smallflower flatsedge (Cyperus difformis), duck salad (Heteranthera limosa) and bamyardgrass (Echinochloa crus-galli) grown to the 2-leaf stage for testing. Treated plants and controls were maintained in a greenhouse for twelve to sixteen days, after which all species were compared to controls and visually evaluated. Plant response ratings, summarized in Table B, are based on a scale of 0 to 10 where 0 is no effect and 10 is complete control. A dash (−) response means no test result.

duck salad = assay: Test B flood test duck salad; format: in vivo, Heteranthera limosa
Outline: as §1

sugar beet = assay: Test B pre/postemergence sugar beet; format: in vivo, Beta vulgaris
Outline: (§2)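 Response is a visual 0-to-10 score relative to untreated plants, where 0 means no effect and 10 means complete control, taken twelve to sixteen days after application. Treatments went onto soil at planting and onto foliage of 1- to 4-leaf plants, using a surfactant-containing non-phytotoxic solvent.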

crabgrass = assay: Test B pre/postemergence crabgrass; format: in vivo, Digitaria sanguinalis
Outline: as §2

bedstraw = assay: Test B pre/postemergence bedstraw; format: in vivo, Galium aparine
Outline: as §2

wheat = assay: Test B pre/postemergence wheat; format: in vivo, Triticum aestivum
Outline: as §2

soybean = assay: Test B pre/postemergence soybean; format: in vivo, Glycine max
Outline: as §2

morningglory = assay: Test B pre/postemergence morningglory; format: in vivo, Ipomoea hederacea
Outline: as §2

velvetleaf = assay: Test B pre/postemergence velvetleaf; format: in vivo, Abutilon theophrasti
Outline: as §2

corn = assay: Test B pre/postemergence corn; format: in vivo, Zea mays
Outline: as §2

wild oat = assay: Test B pre/postemergence wild oat; format: in vivo, Avena fatua
Outline: as §2

giant foxtail = assay: Test B pre/postemergence giant foxtail; format: in vivo, Setaria faberii
Outline: as §2

rape = assay: Test B pre/postemergence rape; format: in vivo, Brassica napus
Outline: as §2

purple nutsedge = assay: Test B pre/postemergence purple nutsedge; format: in vivo, Cyperus rotundus
Outline: as §2

blackgrass = assay: Test B pre/postemergence blackgrass; format: in vivo, Alopecurus myosuroides
Outline: as §2

cocklebur = assay: Test B pre/postemergence cocklebur; format: in vivo, Xanthium strumarium
Outline: as §2

pigweed = assay: Test B pre/postemergence pigweed; format: in vivo, Amaranthus retroflexus
Outline: as §2

surinam grass = assay: Test B pre/postemergence surinam grass; format: in vivo, Brachiaria decumbens
Outline: as §2

[1] = Rate 62 g/ha, flood test species, Pre-emergence, visual evaluation after twelve to sixteen days
[2] = Rate 125 g/ha, under heading Pre-emergence, flood test species, visual evaluation after twelve to sixteen days
[3] = Rate 250 g/ha, Pre-emergence (flood test species), scale 0 to 10, 0 is no effect, 10 is complete control
[4] = Rate 500 g/ha, Pre-emergence section of Table B, 0 to 10 scale (0 no effect, 10 complete control)
[5] = Postemergence, Rate 62 g/ha, scale 0 to 10, 0 is no effect, 10 is complete control
[6] = Postemergence, Rate 500 g/ha, scale 0 (no effect) to 10 (complete control)
[7] = Rate 62 g/ha, Preemergence, scale 0 to 10
[8] = Rate 125 g/ha, Preemergence, scale 0 to 10 (0 no effect, 10 complete control)
[9] = Rate 250 g/ha, Postemergence, scale 0 to 10, 0 is no effect, 10 is complete control
[10] = Rate 500 g/ha, Preemergence, scale 0 to 10 (0 no effect, 10 complete control)
[11] = Postemergence, Rate 125 g/ha, scale of 0 to 10 where 0 is no effect and 10 is complete control
[12] = Preemergence, Rate 250 g/ha, scale 0 (no effect) to 10 (complete control)

CCCCCCn1c(=O)on(C(=O)N(c2ccc(Cl)cc2)C(C)C)c1=O [Compound 529]
Plant response rating, S. Flatsedge (0 to 10 scale, 0 is no effect, 10 is complete control) (smallflower flatsedge; [1]): 0
S. Flatsedge plant response rating (0 to 10 scale, 0 is no effect, 10 is complete control) (smallflower flatsedge; [2]): 0
S. Flatsedge plant response rating (smallflower flatsedge; [3]): 0
S. Flatsedge plant response rating (smallflower flatsedge; [4]): 0
Plant response rating, Barnyardgrass (0 to 10 scale, 0 is no effect, 10 is complete control) (bamyardgrass; [1]): 0
Barnyardgrass plant response rating (0 to 10 scale, 0 is no effect, 10 is complete control) (bamyardgrass; [2]): 0
Barnyardgrass plant response rating (bamyardgrass; [3]): 0
Barnyardgrass plant response rating (bamyardgrass; [4]): 2
Plant response rating, Ducksalad (0 to 10 scale, 0 is no effect, 10 is complete control) (duck salad; [1]): 0
Ducksalad plant response rating (0 to 10 scale, 0 is no effect, 10 is complete control) (duck salad; [2]): 0
Ducksalad plant response rating (duck salad; [3]): 0
Ducksalad plant response rating (duck salad; [4]): 0

CCOC(CC)n1c(=O)on(C(=O)N(c2ccc(F)cc2F)C(C)C)c1=O (stereo not drawn) [Compound 774]
Plant response rating, Sugarbeets (sugar beet; [5]): 0
Sugarbeets plant response rating (sugar beet; [6]): 0
Sugarbeets plant response rating (sugar beet; [7]): 0
Sugarbeets plant response rating (sugar beet; [8]): 0
Sugarbeets plant response rating (sugar beet; [9]): 0
Sugarbeets plant response rating (sugar beet; [10]): 0
Plant response rating, Crabgrass (crabgrass; [5]): 0
Crabgrass plant response rating (crabgrass; [11]): 0
Crabgrass plant response rating (crabgrass; [6]): 0
Crabgrass plant response rating (crabgrass; [12]): 0
Crabgrass plant response rating (crabgrass; [7]): 0
Crabgrass plant response rating (crabgrass; [8]): 0
Crabgrass plant response rating (crabgrass; [9]): 0
Crabgrass plant response rating (crabgrass; [10]): 0
Plant response rating, Bedstraw (bedstraw; [5]): 0
Bedstraw plant response rating (bedstraw; [11]): 0
Bedstraw plant response rating (bedstraw; [6]): 0
Bedstraw plant response rating (bedstraw; [12]): 0
Bedstraw plant response rating (bedstraw; [7]): 0
Bedstraw plant response rating (bedstraw; [8]): 0
Bedstraw plant response rating (bedstraw; [9]): 0
Bedstraw plant response rating (bedstraw; [10]): 0
Plant response rating, Wheat (wheat; [5]): 0
Wheat plant response rating (wheat; [6]): 0
Wheat plant response rating (wheat; [7]): 0
Wheat plant response rating (wheat; [8]): 0
Wheat plant response rating (wheat; [9]): 0
Wheat plant response rating (wheat; [10]): 0
Plant response rating, Soybean (soybean; [5]): 0
Soybean plant response rating (soybean; [6]): 0
Soybean plant response rating (soybean; [7]): 0
Soybean plant response rating (soybean; [8]): 0
Soybean plant response rating (soybean; [9]): 0
Soybean plant response rating (soybean; [10]): 0
Plant response rating, Morningglory (morningglory; [5]): 0
Morningglory plant response rating (morningglory; [11]): 0
Morningglory plant response rating (morningglory; [6]): 0
Morningglory plant response rating (morningglory; [7]): 0
Morningglory plant response rating (morningglory; [8]): 0
Morningglory plant response rating (morningglory; [9]): 0
Morningglory plant response rating (morningglory; [10]): 0
Plant response rating, Velvetleaf (velvetleaf; [5]): 0
Velvetleaf plant response rating (velvetleaf; [6]): 0
Velvetleaf plant response rating (velvetleaf; [7]): 0
Velvetleaf plant response rating (velvetleaf; [8]): 0
Velvetleaf plant response rating (velvetleaf; [9]): 0
Velvetleaf plant response rating (velvetleaf; [10]): 0
Plant response rating, Corn (corn; [5]): 0
Corn plant response rating (corn; [11]): 0
Corn plant response rating (corn; [6]): 0
Corn plant response rating (corn; [12]): 0
Corn plant response rating (corn; [7]): 0
Corn plant response rating (corn; [8]): 0
Corn plant response rating (corn; [9]): 0
Corn plant response rating (corn; [10]): 0
Plant response rating, Wild oats (wild oat; [5]): 0
Wild oats plant response rating (wild oat; [6]): 0
Wild oats plant response rating (wild oat; [7]): 0
Wild oats plant response rating (wild oat; [8]): 0
Wild oats plant response rating (wild oat; [9]): 0
Wild oats plant response rating (wild oat; [10]): 0
Plant response rating, Giant foxtail (giant foxtail; [5]): 0
Giant foxtail plant response rating (giant foxtail; [11]): 0
Giant foxtail plant response rating (giant foxtail; [6]): 0
Giant foxtail plant response rating (giant foxtail; [12]): 0
Giant foxtail plant response rating (giant foxtail; [7]): 0
Giant foxtail plant response rating (giant foxtail; [8]): 0
Giant foxtail plant response rating (giant foxtail; [9]): 0
Giant foxtail plant response rating (giant foxtail; [10]): 0
Plant response rating, Rape (rape; [5]): 0
Rape plant response rating (rape; [11]): 0
Rape plant response rating (rape; [6]): 0
Rape plant response rating (rape; [7]): 0
Rape plant response rating (rape; [8]): 0
Rape plant response rating (rape; [9]): 0
Rape plant response rating (rape; [10]): 0
Plant response rating, Nutsedge (purple nutsedge; [5]): 0
Nutsedge plant response rating (purple nutsedge; [11]): 0
Nutsedge plant response rating (purple nutsedge; [6]): 0
Nutsedge plant response rating (purple nutsedge; [7]): 0
Nutsedge plant response rating (purple nutsedge; [8]): 0
Nutsedge plant response rating (purple nutsedge; [9]): 0
Nutsedge plant response rating (purple nutsedge; [10]): 0
Plant response rating, Blackgrass (blackgrass; [5]): 0
Blackgrass plant response rating (blackgrass; [11]): 0
Blackgrass plant response rating (blackgrass; [6]): 0
Blackgrass plant response rating (blackgrass; [12]): 0
Blackgrass plant response rating (blackgrass; [7]): 0
Blackgrass plant response rating (blackgrass; [8]): 0
Blackgrass plant response rating (blackgrass; [9]): 0
Blackgrass plant response rating (blackgrass; [10]): 0
Plant response rating, Cocklebur (cocklebur; [5]): 0
Cocklebur plant response rating (cocklebur; [11]): 0
Cocklebur plant response rating (cocklebur; [6]): 0
Cocklebur plant response rating (cocklebur; [12]): 0
Cocklebur plant response rating (cocklebur; [7]): 0
Cocklebur plant response rating (cocklebur; [8]): 0
Cocklebur plant response rating (cocklebur; [9]): 0
Cocklebur plant response rating (cocklebur; [10]): 0
Plant response rating, Redroot pigweed (pigweed; [5]): 0
Redroot pigweed plant response rating (pigweed; [11]): 0
Redroot pigweed plant response rating (pigweed; [6]): 0
Redroot pigweed plant response rating (pigweed; [7]): 0
Redroot pigweed plant response rating (pigweed; [8]): 0
Redroot pigweed plant response rating (pigweed; [9]): 0
Redroot pigweed plant response rating (pigweed; [10]): 0
Plant response rating, B. signalgrass (surinam grass; [5]): 0
B. signalgrass plant response rating (surinam grass; [11]): 0
B. signalgrass plant response rating (surinam grass; [12]): 0
B. signalgrass plant response rating (surinam grass; Rate 62 g/ha, Preemergence, scale 0 (no effect) to 10 (complete control)): 0
B. signalgrass plant response rating (surinam grass; [8]): 0
B. signalgrass plant response rating (surinam grass; [9]): 0
B. signalgrass plant response rating (surinam grass; Rate 500 g/ha, Postemergence, scale 0 to 10, 0 is no effect, 10 is complete control): 0
B. signalgrass plant response rating (surinam grass; [10]): 0
